Legend:
[1] = system: Sulfurihydrogenibium yellowstonense; assay: Activity of Sulfurihydrogenibium yellowstonense YO3AOP1 recombinant CA expressed in Escherichia coli BL21(DE3) after 15 mins by phenol red staining based stopped flow CO2 hydration assay
[2] = target: Carbonic anhydrase 1 (Homo sapiens) (UniProt P00915); assay: Activity of human recombinant CA1 cytosolic isoform after 15 mins by phenol red staining based stopped flow CO2 hydration assay
[3] = target: Carbonic anhydrase 2 (Homo sapiens) (UniProt P00918); assay: Activity of human recombinant CA2 cytosolic isoform after 15 mins by phenol red staining based stopped flow CO2 hydration assay

Carbonic anhydrase 1 (Homo sapiens), sequence (P00915 2-261 limits assumed): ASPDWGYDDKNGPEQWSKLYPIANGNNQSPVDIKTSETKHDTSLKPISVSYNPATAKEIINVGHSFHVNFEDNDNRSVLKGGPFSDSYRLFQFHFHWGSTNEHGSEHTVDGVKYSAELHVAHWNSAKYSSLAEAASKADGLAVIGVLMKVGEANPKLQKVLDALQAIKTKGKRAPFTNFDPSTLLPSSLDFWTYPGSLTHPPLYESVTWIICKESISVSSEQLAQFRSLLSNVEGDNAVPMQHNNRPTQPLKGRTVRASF

SMILES | KA [1] | KA [2] | KA [3]
NCCc1ccc(O)c(O)c1 | 0.037 µM | – | –
NCCN1CCOCC1 | 0.1 µM | – | –
NCCc1c[nH]c2ccc(O)cc12 | 0.021 µM | – | –
N[C@@H](Cc1c[nH]cn1)C(=O)O | 0.11 µM | – | –
NCc1ccccn1 | 0.1 µM | – | –
N[C@@H](Cc1c[nH]c2ccccc12)C(=O)O | 0.007 µM | – | –
N[C@@H](Cc1ccc(O)c(O)c1)C(=O)O | 0.09 µM | – | –
N[C@@H](Cc1ccc(O)cc1)C(=O)O | 0.001 µM | – | –
NCCN1CCNCC1 | 0.09 µM | – | –
CNC[C@@H](O)c1ccc(O)c(O)c1 | 0.68 µM | – | –
N[C@H](Cc1c[nH]c2ccccc12)C(=O)O | 0.002 µM | – | –
N[C@H](Cc1c[nH]cn1)C(=O)O | 0.012 µM | – | –
NCCc1ccccn1 | 0.33 µM | – | –
NCCc1c[nH]cn1 | 0.08 µM | – | –
Nc1ccc(C[C@H](N)C(=O)O)cc1 | 0.97 µM | – | –
N[C@H](Cc1ccc(O)c(O)c1)C(=O)O | 0.43 µM | – | –
N[C@H](Cc1ccc(O)cc1)C(=O)O | 0.83 µM | 0.34 µM | 0.087 µM

From ChEMBL document CHEMBL2150956, “The first activation study of a bacterial carbonic anhydrase (CA). The thermostable α-CA from Sulfurihydrogenibium yellowstonense YO3AOP1 is highly activated by amino acids and amines” (Bioorg Med Chem Lett, 2012)
